The results in this text go back to patent US11324706B2, “Composition for inhibiting growth of breast cancer stem cells containing phenylacetaldehyde” (JEJU NATIONAL UNIVERSITY INDUSTRY-ACADEMIC COOPERATION …, priority 2016, dated 2022).

Test [1] relates to MDA-MB-231 cell-derived mammospheres. In words: Mammosphere formation, MDA-MB-231-derived. Type of test: cell-based, human. Conditions: PAA 0.05 and 0.1 mM, 7 days. On the procedure:
The mammospheres were cultured together with PAA (0.05 and 0.1 mM) or DMSO. MCF-7 and MDA-MBB-231 cells were treated with PAA and DMSO during the culture period of 7 days.
Human breast cancer cells, i.e., MCF-7 and MDA-MB-231, were commercially obtained from American Type Culture Collection (ATCC; Manassas, Va., USA). MCF-7 and MDA-MB-231 cells were cultured in Dulbecco's modified essential medium (DMEM; Hyclone, Logan, Utah, USA) containing 10% fetal bovine serum (FBS; Hyclone), 100 U/mL of penicillin, and 100 μg/mL of streptomycin (Hyclone). The MCF-7 and MDA-MB-231 cells were maintained at 37° C. in a 5% CO2-containing humidified incubator. The cells were plated at a density of 1×10^6 on a 10 cm petri dish. […]
At 7 days of culture, the cell culture plate was disposed on a scanner (Epson Perfection V700 PHOTO, Epson Korea, Co, Seoul, Korea) to obtain an 8 bit gray scale image of mammospheres. […] The background signal of the image was negated using a critical algorithm and the selected image was automatically counted. Regarding the mammosphere formation analysis, formation efficiency of mammospheres (MFE, %) was determined in accordance with the number of mammospheres per well/the total number of cells plated per well×100.

Test [2] relates to Nanog, Sox2, Oct4 and CD44 genes. In words: Real-time PCR of CSC markers in mammospheres. Type of test: cell-based, human. The note with it: β-actin internal control. As for the experimental part:
In accordance with the manufacturer's instructions, the level of transcriptome was measured with one step SYBR PrimeScript RT-PCR kit (Takara, Tokyo, Japan) using SYBR green as a double-stranded DNA-specific dye. One-step RT-PCR reaction was conducted in the final volume of 20 μl per reaction containing 1 μg of total RNA, 10 μl of 2× one step SYBR RT-PCR buffer IV, 1 μl of PrimeScript 1 step enzyme mix II, and 10 μM of PCR forward primers and PCR reverse primers for CD44, NANOG, OCT4, SOX2, and β-actin. The forward and reverse primers are as follow: […]
Relative expression amounts of mRNAs of target genes were calculated using a comparative CT method. At least three independent PCR procedures were conducted in accordance with statistical analysis. PCR products were normalized with β-actin genes, as an internal control.

A further test relates to ROSs in MDA-MB-231 cells. In words: Measurement of ROS activity (ROS-Glo H2O2 assay). Type of test: cell-based, human. As for the experimental part: ROSs in cells were analyzed using a ROS-Glo™ H2O2 assay kit. PAA induced ROS production of breast cancers;
Cancer cells were cultured on a 96-well white plate and cultured together with PAA (0.5 mM) or DMSO for 24 hours. In accordance with the manufacturer's instructions, ROS was measured using an ROS-Glo™ H2O2 detection solution (Promega, Wis., USA). 100 μl of the ROS-Glo™ H2O2 detection solution was added to a 96-well white plate containing breast cancer cells, cultured at room temperature for 20 minutes, and relative luminance was recorded using a plate reader, luminometer, GloMax® Explorer (Promega, Wis., USA).

The next test relates to mammospheres. In words: Growth of mammospheres (cell counting). Type of test: cell-based. On the procedure:
PAA inhibits growth of mammospheres. Mammospheres treated with PAA and DMSO for 2 days were separated into single cells and the equal number of cells were seeded on a 6 cm dish. 24 hours after seeding, the cells were counted. At 2- and 3-days, the cells were counted three times and plotted by the mean of the number. The data was represented by mean±standard deviation (SD). * means P<0.05, as compared to DMSO-treated control group;
Accordingly, for PAA, the levels of ROSs in breast cancer stem cells were investigated. As a result, PAA induced ROS activity in MDA-MB-231 cells (FIG. 7B). Next, in order to identify whether or not PAA inhibits proliferation of mammospheres, the mammospheres were treated with PAA and the cell number of mammospheres was counted.

For test [3], the target named is T1, Stat3 / biotin-labelled Stat probe (Homo sapiens, UniProt P40763).
T1 construct: EMSA (electrophoretic mobility-shift assay) of PAA-treated MDA-MB-231 cell-derived mammosphere nuclear lysates; endogenous in cells; host or cells: MDA-MB-231 cell-derived mammospheres (nuclear lysate)
T1 sequence (P40763 2-770 limits assumed): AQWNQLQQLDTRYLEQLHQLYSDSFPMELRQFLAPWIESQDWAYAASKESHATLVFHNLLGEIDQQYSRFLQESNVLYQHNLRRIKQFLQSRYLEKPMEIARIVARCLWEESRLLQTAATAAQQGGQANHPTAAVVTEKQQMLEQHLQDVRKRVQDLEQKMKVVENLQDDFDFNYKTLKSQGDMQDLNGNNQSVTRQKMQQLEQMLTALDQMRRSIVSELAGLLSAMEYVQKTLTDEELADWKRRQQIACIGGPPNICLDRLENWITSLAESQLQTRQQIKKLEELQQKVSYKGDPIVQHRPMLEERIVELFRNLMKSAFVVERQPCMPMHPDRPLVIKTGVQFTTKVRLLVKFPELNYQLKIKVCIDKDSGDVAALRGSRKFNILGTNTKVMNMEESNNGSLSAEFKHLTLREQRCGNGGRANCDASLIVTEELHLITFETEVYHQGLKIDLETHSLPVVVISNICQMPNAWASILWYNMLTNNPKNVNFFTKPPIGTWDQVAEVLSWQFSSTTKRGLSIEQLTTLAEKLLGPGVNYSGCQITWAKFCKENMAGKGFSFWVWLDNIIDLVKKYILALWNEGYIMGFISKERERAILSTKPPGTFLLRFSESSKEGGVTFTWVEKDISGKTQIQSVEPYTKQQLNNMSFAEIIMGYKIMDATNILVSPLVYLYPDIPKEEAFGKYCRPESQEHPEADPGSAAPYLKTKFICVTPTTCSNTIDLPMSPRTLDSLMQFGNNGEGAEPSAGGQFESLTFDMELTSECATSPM
In words: Electrophoretic mobility shift assay (EMSA) with Stat3 probe. Type of test: cell-based. Conditions: PAA-treated mammosphere nuclear extracts. On the procedure:
Nuclear lysates were cultured in biotin-labeled Stat3 probes and were isolated by 6% PAGE;
Lane 1: probe alone; Lane 2: probe+nuclear extracts; Lane 3: probe+PAA-treated nuclear extracts; Lane 4: self-competition; Lane 5: nuclear extracts cultured together with mutant STAT3 probe. The PAA reduced DNA/STAT3 interactions in mammosphere nuclear lysates;
In accordance with the manufacturer's instructions, EMSAs were detected using a chemiluminescent EMSA kit (Thermoscientific, IL, USA) commercially available from Lightshift. Biotin-top and bottom probe parts (5′-[…]-Biotin3′, SEQ NO. 11 and 5′-[…]-Biotin3′, SEQ NO. 12) of Stat3 probe were annealed and the double-stranded oligonucleotide was end-labelled with biotin.
Biotin-labelled DNA probes were cultured together with PAA-treated nuclear proteins in a total volume of 20 μl of EMSA buffer containing 1 μg/μl poly[dI-dC]) for 20 minutes at room temperature. The reaction mixture was subjected to electrophoresis on 4% polyacrylamide nondenaturing gel at 4° C. in the presence of 0.5×TBE (45 mM Tris borate and 1 mM EDTA) and visualized using a chemiluminescence nucleic acid detection kit (Thermoscientific, IL, USA).
In addition, bonding between PAA-treated nuclear extracts and Stat3 DNAs was analyzed using a biotin-labelled Stat-conjugated probe that bonds to STAT3 at a high affinity. […]

Take `O=CCc1ccccc1` [PAA, phenylacetaldehyde]: the “number of primary mammospheres derived from MDA-MB-231 cells” value in test [1] is recorded as “reduced”. Also, the “expression of self-renewal genes such as Nanog, Sox2, Oct4, and CD44” value in test [2] is reported as “reduced”. The ROS activity result with ROSs in MDA-MB-231 cells is “induced”. The apoptosis of mammospheres result in the test on mammospheres is “induced apoptosis”. Also, in the test on mammospheres (cell number counted after PAA treatment), the proliferation of mammospheres result is reported as “greatly reduces”. In addition, the “bonding between biotin-labelled Stat probe and Stat3” value in test [3] is given as “inhibited”.
